Source: patent US8912181B2 (Taiho Pharmaceutical Co., Ltd., priority 2011, dated 2014)
pIC50: −log10 of the molar value.

Assays:
SK-BR-3 cells = test: Determination of cell growth inhibition (crystal violet staining method); type: cell-based; conditions: Homo sapiens; breast cancer cells SK-BR-3, 72 hours culture with test substance
Experimental: Cell growth was assayed by a crystal violet staining method. SK-BR-3 cells (HTB-30) purchased from American Type Culture Collection were inoculated at a concentration of 5,000 cells/well to a 96-well plate (#353075, BD Biosciences). After culture at 37° C. for 24 hours in a 5% CO2 incubator, each test substance was added thereto, and the cells were further cultured for 72 hours. A 25% glutaraldehyde solution (#17025-25, Nacalai Tesque, Inc.) was added thereto at a concentration of 20 μL/well per 200 μL of the medium, and the plate was incubated at room temperature for 20 minutes to fix the cells. The plate was washed with water and dried. Then, a solution containing 0.05% crystal violet (#038-17792, Wako Pure Chemical Industries, Ltd.) and 20% methanol was added thereto at a concentration of 100 μL/well, and the plate was incubated at room temperature for 20 minutes to stain the cells. The plate was washed with water and dried. A mixed solution of 0.05 M NaH2PO4 and ethanol (mixed in equal amounts) was added thereto at a concentration of 100 μL/well. Absorbance was measured at 540 nm using a microplate reader (MTP-450, Corona Electric Co., Ltd.) and used as an index for the number of cells per well. Percent inhibition (%) of cell growth by each compound of the present invention was determined according to the formula shown below with the absorbance of no drug addition group as a control. […] Percent inhibition (%)=(C−T)/C×100, wherein T: Absorbance of well with test substance addition C: Absorbance of well without test substance addition.

[1] = target: human HSP90 alpha protein (N-terminal, amino acids 2 to 236) (Homo sapiens (Human), UniProt P07900); test: Determination of HSP90-binding activity (AlphaScreen competitive assay with biotinylated geldanamycin); conditions: inhibition of binding of biotinylated geldanamycin to purified HSP90 N-terminal protein, read-out: HSP-binding activity IC50
Experimental: First, a purified HSP90 solution was prepared as follows: a human HSP90 alpha gene (NCBI Reference Sequence accession no. NM-005348) region corresponding to amino acids 2 to 236 of human HSP90 alpha protein (NCBI Reference Sequence accession no. NP-005339; full length: 732 amino acids) was inserted to pET-19b (Novagen; Merck KGaA) to construct a plasmid pET-HS[…] for expression of the HSP90 N-terminal protein having a His-tag at the N-terminus. E. coli (BL21(DE3), Stratagene Corp.) was transformed with pET-HS[…] and then cultured at 37° C. for 4 hours in the presence of 0.5 mM isopropyl-beta-D-thiogalactopyranoside (Sigma-Aldrich Corp.). The collected E. coli was suspended in a lysis buffer (50 mM Tris-HCl (pH 7.5), 200 mM NaCl) and sonicated. The sonicated cell solution was centrifuged (40,000×g, 20 minutes), and the supernatant was used as a crude extract. This crude extract was fractionated using Ni Sepharose High Performance (GE Healthcare Japan Corp.) chromatography and HiLoad 26/60 Superdex 75 pg (GE Healthcare Japan Corp.). Then, a fraction of HSP90 protein concentrates was prepared in a solution containing 50 mM Tris-HCl (pH 7.5) and 20% glycerol as a purified HSP90 solution. The purified HSP90 solution was divided and stored at -80° C. until use. HSP90-binding activity was determined by an AlphaScreen competitive assay system. […] After reaction at room temperature for 2 hours, biotinylated geldanamycin was added thereto at a concentration of 40 nM/well and further reacted for 1 hour. Detection mix (20 mM HEPES-KOH (pH 7.5), 0.5% BSA, 0.04 mg/mL Nickel Chelate Acceptor beads, 0.04 mg/mL Streptavidin-coated Donor beads) (#6760619C, PerkinElmer, Inc.) was added to each well in an amount equal to the amount of the reaction solution and reacted at room temperature for 1 hour in the dark. Then, fluorescence intensity was measured using Multilabel Plate Reader EnVision (PerkinElmer, Inc.). Percent inhibition (%) of the binding of biotinylated geldanamycin by each compound of the present invention was determined according to the formula shown below with the fluorescence signal of no test substance addition group as a control. […] Percent inhibition (%)=(C-T)/C×100, wherein T: Signal of well with test substance addition C: Signal of well without test substance addition.

Row | Compound | pIC50 (SK-BR-3 cells) | pIC50 [1]
1 | Cn1cc(-c2cn(-c3cccc4c(-c5ccc(C(N)=O)c(N)c5)cc(C(F)(F)F)nc34)cn2)cn1 [Example 69, 2-Amino-4-(8-(4-(1-methyl-1H-pyrazol-4-yl)-1H-imidazol-1-yl)-2-(trifluoromethyl)quinolin-4-yl)benzamide] | 7.70 | 6.82
2 | Cn1cc(-c2cn(-c3cccc4c(-c5ccc(C(N)=O)c(F)c5)cc(C(F)(F)F)nc34)cn2)cn1 [Example 70, 2-Fluoro-4-(8-(4-(1-methyl-1H-pyrazol-4-yl)-1H-imidazol-1-yl)-2-(trifluoromethyl)quinolin-4-yl)benzamide] | 7.22 | 6.68
3 | Cn1cc(-c2cn(-c3cccc4c(-c5ccc(C(N)=O)cc5N)cc(C(F)(F)F)nc34)cn2)cn1 [Example 73, 3-Amino-4-(8-(4-(1-methyl-1H-pyrazol-4-yl)-1H-imidazol-1-yl)-2-(trifluoromethyl)quinolin-4-yl)benzamide] | 7.15 | 6.72
4 | Cn1cc(-c2cn(-c3cccc4c(-c5ccc(C(N)=O)cc5N)nc(C(F)(F)F)nc34)cn2)cn1 [Example 75, 3-Amino-4-(8-(4-(1-methyl-1H-pyrazol-4-yl)-1H-imidazol-1-yl)-2-(trifluoromethyl)quinazolin-4-yl)benzamide] | 6.48 | 6.68
5 | CC(C)(C)Nc1cc(-c2cc(C(F)(F)F)nc3c(-n4cnc(-c5cccnc5)c4)cccc23)ccc1C(N)=O [Example 76, 2-(Tert-butylamino)-4-(8-(4-(pyridin-3-yl)-1H-imidazol-1-yl)-2-(trifluoromethyl)quinolin-4-yl)benzamide] | 7.40 | 6.70
6 | CCNc1cc(-c2cc(C(F)(F)F)nc3c(-n4cnc(-c5cccnc5)c4)cccc23)ccc1C(N)=O [Example 77, 2-(Ethylamino)-4-(8-(4-(pyridin-3-yl)-1H-imidazol-1-yl)-2-(trifluoromethyl)quinolin-4-yl)benzamide] | 8.00 | 6.77
7 | NC(=O)c1ccc(-c2cc(C(F)(F)F)nc3c(-n4cnc(-c5cccnc5)c4)cccc23)cc1N [Example 78, 2-Amino-4-(8-(4-(pyridin-3-yl)-1H-imidazol-1-yl)-2-(trifluoromethyl)quinolin-4-yl)benzamide] | 7.52 | 6.74
8 | Cn1cc(-c2cn(-c3cccc4c(-c5ccc(C(N)=O)nc5)cc(C(F)(F)F)nc34)cn2)cn1 [Example 83, 5-(8-(4-(1-Methyl-1H-pyrazol-4-yl)-1H-imidazol-1-yl)-2-(trifluoromethyl)quinolin-4-yl)picolinamide] | 7.00 | 6.68
9 | Cc1cc(C(N)=O)ccc1-c1cc(C(F)(F)F)nc2c(-n3cnc(-c4cnn(C)c4)c3)cccc12 [Example 84, 3-Methyl-4-(8-(4-(1-methyl-1H-pyrazol-4-yl)-1H-imidazol-1-yl)-2-(trifluoromethyl)quinolin-4-yl)benzamide] | 6.96 | 6.66

Now from value to compound:

Row | pIC50 (SK-BR-3 cells) | pIC50 [1] | Compound
10 | 6.82 | 6.77 | Cn1cc(-c2cn(-c3cccc4c(-c5ccc(C(N)=O)c(NCCc6ccccn6)c5)nccc34)cn2)cn1 [Example 60, 4-(5-(4-(1-Methyl-1H-pyrazol-4-yl)-1H-imidazol-1-yl)isoquinolin-1-yl)-2-(2-(pyridin-2-yl)ethylamino)benzamide]
11 | 7.15 | 6.72 | CC(C)Nc1cc(-c2nccc3c(-n4cnc(-c5cnn(C)c5)c4)cccc23)ccc1C(N)=O [Example 61, 2-(Isopropylamino)-4-(5-(4-(1-methyl-1H-pyrazol-4-yl)-1H-imidazol-1-yl)isoquinolin-1-yl)benzamide]
12 | 6.59 | 6.68 | COCCNc1cc(-c2nccc3c(-n4cnc(-c5cnn(C)c5)c4)cccc23)ccc1C(N)=O [Example 62, 2-(2-Methoxyethylamino)-4-(5-(4-(1-methyl-1H-pyrazol-4-yl)-1H-imidazol-1-yl)isoquinolin-1-yl)benzamide]
13 | 8.00 | 6.77 | CC(C)Nc1cc(-c2cc(C(F)(F)F)nc3c(-n4cnc(-c5cnn(C)c5)c4)cccc23)ccc1C(N)=O [Example 64]
14 | 7.70 | 6.82 | CCNc1cc(-c2nc(C)cc3c(-n4cnc(-c5cnn(C)c5)c4)cccc23)ccc1C(N)=O [Example 66, 2-(Ethylamino)-4-(3-methyl-5-(4-(1-methyl-1H-pyrazol-4-yl)-1H-imidazol-1-yl)isoquinolin-1-yl)benzamide]
15 | 7.70 | 6.68 | Cc1cc2c(-n3cnc(-c4cnn(C)c4)c3)cccc2c(-c2ccc(C(N)=O)c(NC(C)C)c2)n1 [Example 67, 2-(Isopropylamino)-4-(3-methyl-5-(4-(1-methyl-1H-pyrazol-4-yl)-1H-imidazol-1-yl)isoquinolin-1-yl)benzamide]
16 | 8.00 | 6.72 | Cc1cc2c(-n3cnc(-c4cnn(C)c4)c3)cccc2c(-c2ccc(C(N)=O)c(NCC3CC3)c2)n1 [Example 68, 2-(Cyclopropylmethylamino)-4-(3-methyl-5-(4-(1-methyl-1H-pyrazol-4-yl)-1H-imidazol-1-yl)isoquinolin-1-yl)benzamide]
17 | 6.68 | 6.77 | Cc1cc2c(-n3cnc(-c4cnn(C)c4)c3)cccc2c(-c2ccc(C(N)=O)c(N)c2)n1 [Example 71, 2-Amino-4-(3-methyl-5-(4-(1-methyl-1H-pyrazol-4-yl)-1H-imidazol-1-yl)isoquinolin-1-yl)benzamide]
18 | 5.76 | 6.13 | CCNc1cc(-c2nccc3c(-n4cnc(-c5cnn(C)c5)c4)ccnc23)ccc1C(N)=O [Example 72, 2-Ethylamino-4-(4-(4-(1-methyl-1H-pyrazol-4-yl)-1H-imidazol-1-yl)1,7-naphthyridin-8-yl)benzamide]
19 | 5.95 | 6.36 | Cc1cc2c(-n3cnc(-c4cnn(C)c4)c3)cccc2c(-c2ccc(C(N)=O)cc2N)n1 [Example 74, 3-Amino-4-(3-methyl-5-(4-(1-methyl-1H-pyrazol-4-yl)-1H-imidazol-1-yl)isoquinolin-1-yl)benzamide]
20 | 7.70 | 6.49 | Cn1cc(-c2cn(-c3cccc4c(-c5ccc(C(N)=O)c(NC(C)(C)C)c5)nc(C(F)(F)F)nc34)cn2)cn1 [Example 79, 2-(Tert-butylamino)-4-(8-(4-(1-methyl-1H-pyrazol-4-yl)-1H-imidazol-1-yl)-2-(trifluoromethyl)quinazolin-4-yl)benzamide]
21 | 7.70 | 6.85 | CCNc1cc(-c2nc(C(F)(F)F)nc3c(-n4cnc(-c5cnn(C)c5)c4)cccc23)ccc1C(N)=O [Example 80, 2-(Ethylamino)-4-(8-(4-(1-methyl-1H-pyrazol-4-yl)-1H-imidazol-1-yl)-2-(trifluoromethyl)quinazolin-4-yl)benzamide]
22 | 6.12 | 6.06 | Cn1cc(-c2cn(-c3cccc4c(-c5ccc(C(N)=O)c(Cl)c5)cc(C(F)(F)F)nc34)cn2)cn1 [Example 81, 2-Chloro-4-(8-(4-(1-methyl-1H-pyrazol-4-yl)-1H-imidazol-1-yl)-2-(trifluoromethyl)quinolin-4-yl)benzamide]
23 | 8.00 | 7.00 | Cn1cc(-c2cn(-c3cccc4c(-c5ccc(C(N)=O)c(NC(C)(C)C)c5)cc(C(F)(F)F)nc34)cn2)cn1 [Example 86, 2-(Tert-butylamino)-4-(8-(4-(1-methyl-1H-pyrazol-4-yl)-1H-imidazol-1-yl)-2-(trifluoromethyl)quinolin-4-yl)benzamide]
